Legend:
[1] = Aggregation of C14 by Beer-Lambert titration; format: physicochemical; settings: aqueous solution; linear plot of Soret band at 424 nm
Description: To test the possible occurrence of aggregation processes for this porphyrin, the intensity of the Soret band was titrated as a function of the porphyrin concentration according to the Beer-Lambert law. In a first phase of our investigations, the data were calculated up to a porphyrin concentration of 0.16 mM (FIG. 1A), since the optical density of more concentrated porphyrin solutions became too large even using cuvettes of 0.1 cm optical path. […] This spectral feature is generally attributed to the presence of porphyrin oligomers (Reddi E, Ceccon M, Valduga G, Joni G, Bommer J C, et al. (2002) Photophysical properties and antibacterial activity of meso-substituted cationic porphyrins. Photochem Photobiol 75: 462-470). To test the possibility that the hydrophobicity imparted by the long alkyl chain of C14 may favour the occurrence of some aggregation as the concentration increases, the titration was extended to larger molarities calculating the absorbance values at 404 nm instead of 424 nm (FIG. 2B).

[2] = tested on: 3rd-4th instar Ae. aegypti larvae; test: Larvicidal efficacy of C14 porphyrin (LC50); format: in vivo; settings: 6 mg PFP
Description: Irradiation of mosquito larvae were performed by employing full spectrum visible light (400-800 nm) at a fluence rate of 1.0 to 4.0 mW/cm^2 using low-pressure mercury discharge fluorescent tubes TL-D Standard Colours (TL-D 58W/33-640 1SL, PHILIPS, EC). The intensity of the incident radiation was measured by an ILT1400A radiometer/photometer, equipped with a SED623/HNK15 multi-junction thermopile detector (International Light Technologies Inc., MA, USA).
(§1) All the experiments were carried out in a climatic chamber at 28±2° C. with a regulated photoperiod of 12 hours. Transparent plastic trays, containing 500 ml C14 solutions or spring water were employed. Typically, 5±1 days old, 3rd-early 4th instar Aedes aegypti larvae were used. All the experiments were replicated three times.
Mortality data were analyzed by ANOVA and LSD post-hoc tests using SPSS v. 11.0 (SPSS Inc.). LC50 values and relevant statistics were obtained by nonlinear regression of mortality data, using OriginPro v. 7.5 (OriginLab Corp.).
Trays containing C14 porphyrin solutions at 7 increasing concentrations (range 0.03-4.3 μM), or spring water as a control, were provided with 6 mg of PFP each (wherein PFP means powdered food pellet (PFP) with final particle diameter of 5-500 μm diameter obtained by crushing a standard food pellet for laboratory rodents, namely 4RF18 GLP (Mucedola Srl, Italy) using an electric blender and then sieving at mesh diameter 500 μm) and then incubated in the dark for 48 hours. Batches of 100 larvae, fasted for the previous 24 hours, were introduced into the trays at 8.00 pm (beginning of the 12 hour-long dark period in the climatic chamber). Larval mortality was evaluated on the next day at 9 am (after 1 hour irradiation), 2 pm (6 hours irradiation) and 8 pm (12 hours irradiation). An additional mortality evaluation was performed on the following day at 8.00 am, after a further overnight incubation. Larvae not moving or not showing a normally vigorous escaping response at probing were defined as dead or dying, respectively, and counted together. Pupae occasionally formed during the experiment, which never exceeded 10% of the total number of larvae, were discarded and excluded from the evaluation.
C14 solutions were incubated with 6 mg PFP at 28±2° C. in the dark for 48 hours. Larvae (3rd-4th instar, n=100, 3 replicates) were introduced 12 hours before the start of the irradiation (fluence rate: 1.0-4.0 mW/cm^2).

[3] = tested on: Aedes aegypti 3rd-4th instar larvae; test: Efficacy and residual activity of photolarvicidal formulations; format: in vivo; settings: for % mortality by incubation time: 12 h irradiation
Description: To assess the effect of different C14 loading concentrations on the photolarvicidal activity of the C14-PFP complexes, two photolarvicidal formulates were prepared. The formulates, named C14 PF-5 and C14 PF-50, were obtained by incubating overnight at room temperature under gentle shaking 25 mg of PFP in 500 ml of 5 μM and 50 μM aqueous solutions of C14, respectively. The solutions were filtered using Whatman qualitative filter papers (Whatman International Ltd., UK) and the solid residues, consisting in the C14-PFP complexes, were washed with 10 ml distilled water, oven-dried at 37° C. for 4 hours and stored at room temperature until use. To quantify the amount of bound C14, samples of the two C14-PFP formulates were dissolved in 3 ml of 2% SDS for 2 h under gentle magnetic stirring. The extracted porphyrin was then quantified by spectrophotometric analysis as described above.
as §1
Five series of trays were prepared, namely 0.3 μM and 5 μM C14 porphyrin solutions containing 6 mg PFP (wherein PFP means powdered food pellet (PFP) with final particle diameter of 5-500 μm diameter obtained by crushing a standard food pellet for laboratory rodents, namely 4RF18 GLP (Mucedola Srl, Italy) using an electric blender and then sieving at mesh diameter 500 μm); spring water containing 6 mg C14 PF-5 or C14 PF-50 formulate (wherein C14 PF-5 and C14 PF-50, were obtained by incubating overnight at room temperature under gentle shaking 25 mg of PFP in 500 ml of 5 μM and 50 μM aqueous solutions of C14, respectively) and spring water containing 6 mg PFP as a control. Each series was arranged into three groups, which were incubated at a 12 hour photoperiod for 48 hours, one, or two weeks, respectively. At the end of the incubation periods, batches of 100 larvae, having fasted for 24 hours, were introduced into the trays, at 8 pm (beginning of the 12 h-long dark period in the climatic chamber). Larval mortality was evaluated after 12 hours (next day at 8.00 pm) of irradiation.

CCCCCCCCCCCCCC[n+]1ccc(-c2c3nc(c(-c4cc[n+](C)cc4)c4ccc([nH]4)c(-c4cc[n+](C)cc4)c4nc(c(-c5cc[n+](C)cc5)c5ccc2[nH]5)C=C4)C=C3)cc1.Cc1ccc(S(=O)(=O)[O-])cc1.Cc1ccc(S(=O)(=O)[O-])cc1.Cc1ccc(S(=O)(=O)[O-])cc1.Cc1ccc(S(=O)(=O)[O-])cc1 [C14, meso-tri(N-methyl-pyridyl), mono(N-tetradecyl-pyridyl)porphine]
concentration up to which a purely monomeric state is indicated [1]: up to 0.16 mM | LC50 ([2]; 12 light + 12 dark hours): 110 nM | LC50 ([2]; 1 hour of irradiation, 1.0-4.0 mW/cm^2): 460 nM | LC50 ([2]; 6 hours of irradiation, 1.0-4.0 mW/cm^2): 250 nM | LC50 ([2]; 12 hours of irradiation, 1.0-4.0 mW/cm^2): 220 nM | % mortality by incubation time ([3]; 0.3 μM C14 solution with 6 mg untreated larval food, trays incubated 1 week): 100% | % mortality by incubation time ([3]; 0.3 μM C14 solution with 6 mg untreated larval food, trays incubated 2 weeks): 0% | % mortality by incubation time ([3]; 0.3 μM C14 solution with 6 mg untreated larval food, trays incubated 48 hours): 100% | residual activity ([3]; 0.3 μM solutions in water containing 6 mg untreated PFP): 1 week | % mortality by incubation time ([3]; 5 μM C14 solution with 6 mg untreated larval food, trays incubated 1 week): 100% | % mortality by incubation time ([3]; 5 μM C14 solution with 6 mg untreated larval food, trays incubated 2 weeks): 100% | % mortality by incubation time ([3]; 5 μM C14 solution with 6 mg untreated larval food, trays incubated 48 hours): 100% | residual activity ([3]; 5 μM solutions in water containing 6 mg untreated PFP): two weeks

From US20130296370A1, “COMPOSITION COMPRISING A PHOTOACTIVATABLE LARVICIDE” (UNIVERSITA DEGLI STUDI DI PADOVA, priority 2010, published 2013)
